{
  "source": "patent US12077503B2",
  "about": "“Substituted cyclic amides and their use as herbicides” (FMC CORPORATION, priority 2015, dated 2024)",
  "assay_type_in_all_cases": "in vivo",
  "key": {"[1]": {"system": "ragweed (common ragweed, Ambrosia elatior)", "assay": "Test A postemergence", "conditions": "Ambrosia artemisiifolia, post-emergence, 240 h", "in_short": "(§1)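 Visual injury, scored on a 0–100 scale relative to untreated controls, was recorded about 10 d after application. Treatments were a preemergence soil spray over planted seeds or a postemergence spray on plants at the one- to two-leaf stage, 2 to 10 cm tall, all in loam soil–sand blend in the greenhouse.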"}, "[2]": {"system": "Galium (catchweed bedstraw, Galium aparine)", "assay": "Test A postemergence", "conditions": "Galium, post-emergence, 240 h", "in_short": "as §1"}, "[3]": {"system": "giant foxtail (Setaria faberii)", "assay": "Test A postemergence", "conditions": "Setaria faberi, post-emergence, 240 h", "in_short": "as §1"}, "[4]": {"system": "corn (Zea mays)", "assay": "Test A postemergence", "conditions": "Zea mays, post-emergence, 240 h", "in_short": "as §1"}, "[5]": {"system": "barnyardgrass (Echinochloa crus-galli)", "assay": "Test A postemergence", "conditions": "Echinochloa crus-galli, post-emergence, 240 h", "in_short": "as §1"}, "[6]": {"system": "Kochia (Kochia scoparia)", "assay": "Test A postemergence", "conditions": "Bassia scoparia, post-emergence, 240 h", "in_short": "as §1"}, "[7]": {"system": "ryegrass, Italian (Italian ryegrass, Lolium multiflorum)", "assay": "Test A postemergence", "conditions": "Lolium multiflorum, post-emergence, 240 h", "in_short": "as §1"}, "[8]": {"system": "wheat (Triticum aestivum)", "assay": "Test A postemergence", "conditions": "Triticum aestivum, post-emergence, 240 h", "in_short": "as §1"}, "[9]": {"system": "blackgrass (Alopecurus myosuroides)", "assay": "Test A postemergence", "conditions": "Alopecurus myosuroides, post-emergence, 240 h", "in_short": "as §1"}, "[10]": {"system": "pigweed (Amaranthus retroflexus)", "assay": "Test A postemergence", "conditions": "Amaranthus retroflexus, post-emergence, 240 h", "in_short": "as §1"}, "[11]": {"system": "ragweed (common ragweed, Ambrosia elatior)", "assay": "Test A preemergence", "conditions": "Ambrosia artemisiifolia, pre-emergence, 240 h, 0 to 100 scale where 0 is no effect and 100 is complete control, read-out: Ragweed plant response rating", "in_short": "as §1"}, "[12]": {"system": "giant foxtail (Setaria faberii)", "assay": "Test A preemergence", "conditions": "Setaria faberi, pre-emergence, 240 h, 0 to 100 scale where 0 is no effect and 100 is complete control, read-out: Foxtail, Giant plant response rating", "in_short": "as §1"}, "[13]": {"system": "barnyardgrass (Echinochloa crus-galli)", "assay": "Test A preemergence", "conditions": "Echinochloa crus-galli, pre-emergence, 240 h, 0 to 100 scale where 0 is no effect and 100 is complete control, read-out: Barnyardgrass plant response rating", "in_short": "as §1"}, "[14]": {"system": "Kochia (Kochia scoparia)", "assay": "Test A preemergence", "conditions": "Bassia scoparia, pre-emergence, 240 h, 0 to 100 scale where 0 is no effect and 100 is complete control, read-out: Kochia plant response rating", "in_short": "as §1"}, "[15]": {"system": "ryegrass, Italian (Italian ryegrass, Lolium multiflorum)", "assay": "Test A preemergence", "conditions": "Lolium multiflorum, pre-emergence, 240 h, 0 to 100 scale where 0 is no effect and 100 is complete control, read-out: Ryegrass, Italian plant response rating", "in_short": "as §1"}, "[16]": {"system": "pigweed (Amaranthus retroflexus)", "assay": "Test A preemergence", "conditions": "Amaranthus retroflexus, pre-emergence, 240 h, 0 to 100 scale where 0 is no effect and 100 is complete control, read-out: Pigweed plant response rating"}, "[17]": {"system": "barnyardgrass (Echinochloa crus-galli)", "assay": "Test B flooded paddy test", "conditions": "Echinochloa crus-galli, 250 g ai/ha, Flood; 0 to 100 scale where 0 is no effect and 100 is complete control; read-out: Barnyardgrass plant response rating", "in_short": "(§2)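 Response scored visually against untreated controls, 0 = no effect and 100 = complete control, 13–15 d after treatment in the greenhouse. Compounds added to paddy water held 3 cm above soil surface. Treatment given at 2-leaf stage.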"}, "[18]": {"system": "sedge, umbrella (small-flower umbrella sedge, Cyperus difformis)", "assay": "Test B flooded paddy test", "conditions": "Cyperus difformis, 250 g ai/ha, Flood; 0 to 100 scale where 0 is no effect and 100 is complete control; read-out: Sedge, Umbrella plant response rating", "in_short": "as §2"}, "[19]": {"system": "ducksalad (Heteranthera limosa)", "assay": "Test B flooded paddy test", "conditions": "Heteranthera limosa, 250 g ai/ha, Flood; 0 to 100 scale where 0 is no effect and 100 is complete control; read-out: Ducksalad plant response rating", "in_short": "as §2"}, "[20]": {"system": "rice (Oryra sativa)", "assay": "Test B flooded paddy test", "conditions": "Oryza sativa, 250 g ai/ha, Flood; 0 to 100 scale where 0 is no effect and 100 is complete control; read-out: Rice plant response rating", "in_short": "as §2"}, "[21]": {"conditions": "125 g ai/ha, preemergence, approx. 10 d"}},
  "data": [
    {"molecule": "O=C1NC[C@H](c2ccc(C(F)(F)F)cn2)[C@H]1C(=O)Nc1ccc(F)c(F)c1F", "note": "[Compound 1105]", "values": [
      {"measurement": "pest or weed control at 125 g/ha", "setting": "[1]; 125 g ai/ha, postemergence, visual injury on 0 to 100 scale (0 no effect, 100 complete control), approx. 10 d, read-out: Ragweed plant response rating", "value": 0, "unit": "%"},
      {"measurement": "pest or weed control at 31 g/ha", "setting": "[1]; Postemergence, 31 g ai/ha, visual injury after approx. 10 d, 0 to 100 scale, 0 no effect, 100 complete control, read-out: Plant response rating, Ragweed", "value": 0, "unit": "%"},
      {"measurement": "pest or weed control at 125 g/ha", "setting": "[2]; 125 g ai/ha, postemergence, visual injury on 0 to 100 scale (0 no effect, 100 complete control), approx. 10 d, read-out: Galium plant response rating", "value": 40, "unit": "%"},
      {"measurement": "pest or weed control at 31 g/ha", "setting": "[2]; Postemergence, 31 g ai/ha, visual injury after approx. 10 d, 0 to 100 scale, 0 no effect, 100 complete control, read-out: Plant response rating, Galium", "value": 30, "unit": "%"},
      {"measurement": "pest or weed control at 125 g/ha", "setting": "[3]; 125 g ai/ha, postemergence, visual injury on 0 to 100 scale (0 no effect, 100 complete control), approx. 10 d, read-out: Foxtail, Giant plant response rating", "value": 50, "unit": "%"},
      {"measurement": "pest or weed control at 31 g/ha", "setting": "[3]; Postemergence, 31 g ai/ha, visual injury after approx. 10 d, 0 to 100 scale, 0 no effect, 100 complete control, read-out: Plant response rating, Foxtail, Giant", "value": 0, "unit": "%"},
      {"measurement": "plant injury at 125 g/ha", "setting": "[4]; 125 g ai/ha, postemergence, visual injury on 0 to 100 scale (0 no effect, 100 complete control), approx. 10 d, read-out: Corn plant response rating", "value": 0, "unit": "%"},
      {"measurement": "Corn plant response rating (crop injury, 0 = no effect, 100 = complete kill) at 31 g/ha", "setting": "[4]; Postemergence, 31 g ai/ha, visual injury after approx. 10 d, 0 to 100 scale, 0 no effect, 100 complete control", "value": 0, "unit": "%"},
      {"measurement": "pest or weed control at 125 g/ha", "setting": "[5]; 125 g ai/ha, postemergence, visual injury on 0 to 100 scale (0 no effect, 100 complete control), approx. 10 d, read-out: Barnyardgrass plant response rating", "value": 30, "unit": "%"},
      {"measurement": "pest or weed control at 31 g/ha", "setting": "[5]; Postemergence, 31 g ai/ha, visual injury after approx. 10 d, 0 to 100 scale, 0 no effect, 100 complete control, read-out: Plant response rating, Barnyardgrass", "value": 0, "unit": "%"},
      {"measurement": "pest or weed control at 125 g/ha", "setting": "[6]; 125 g ai/ha, postemergence, visual injury on 0 to 100 scale (0 no effect, 100 complete control), approx. 10 d, read-out: Kochia plant response rating", "value": 20, "unit": "%"},
      {"measurement": "pest or weed control at 31 g/ha", "setting": "[6]; Postemergence, 31 g ai/ha, visual injury after approx. 10 d, 0 to 100 scale, 0 no effect, 100 complete control, read-out: Plant response rating, Kochia", "value": 0, "unit": "%"},
      {"measurement": "pest or weed control at 125 g/ha", "setting": "[7]; 125 g ai/ha, postemergence, visual injury on 0 to 100 scale (0 no effect, 100 complete control), approx. 10 d, read-out: Ryegrass, Italian plant response rating", "value": 0, "unit": "%"},
      {"measurement": "pest or weed control at 31 g/ha", "setting": "[7]; Postemergence, 31 g ai/ha, visual injury after approx. 10 d, 0 to 100 scale, 0 no effect, 100 complete control, read-out: Plant response rating, Ryegrass, Italian", "value": 0, "unit": "%"},
      {"measurement": "plant injury at 125 g/ha", "setting": "[8]; 125 g ai/ha, postemergence, visual injury on 0 to 100 scale (0 no effect, 100 complete control), approx. 10 d, read-out: Wheat plant response rating", "value": 0, "unit": "%"},
      {"measurement": "plant injury at 31 g/ha", "setting": "[8]; Postemergence, 31 g ai/ha, visual injury after approx. 10 d, 0 to 100 scale, 0 no effect, 100 complete control, read-out: Plant response rating, Wheat", "value": 0, "unit": "%"},
      {"measurement": "pest or weed control at 125 g/ha", "setting": "[9]; 125 g ai/ha, postemergence, visual injury on 0 to 100 scale (0 no effect, 100 complete control), approx. 10 d, read-out: Blackgrass plant response rating", "value": 0, "unit": "%"},
      {"measurement": "pest or weed control at 31 g/ha", "setting": "[9]; Postemergence, 31 g ai/ha, visual injury after approx. 10 d, 0 to 100 scale, 0 no effect, 100 complete control, read-out: Plant response rating, Blackgrass", "value": 0, "unit": "%"},
      {"measurement": "pest or weed control at 125 g/ha", "setting": "[10]; 125 g ai/ha, postemergence, visual injury on 0 to 100 scale (0 no effect, 100 complete control), approx. 10 d, read-out: Pigweed plant response rating", "value": 0, "unit": "%"},
      {"measurement": "pest or weed control at 31 g/ha", "setting": "[10]; Postemergence, 31 g ai/ha, visual injury after approx. 10 d, 0 to 100 scale, 0 no effect, 100 complete control, read-out: Plant response rating, Pigweed", "value": 0, "unit": "%"},
      {"measurement": "pest or weed control at 31 g/ha", "setting": "[11]; 31 g ai/ha, Preemergence", "value": 0, "unit": "%"},
      {"measurement": "pest or weed control at 125 g/ha", "setting": "[11]; [21]", "value": 20, "unit": "%"},
      {"measurement": "pest or weed control at 31 g/ha", "setting": "[12]; 31 g ai/ha, Preemergence", "value": 20, "unit": "%"},
      {"measurement": "pest or weed control at 125 g/ha", "setting": "[12]; [21]", "value": 90, "unit": "%"},
      {"measurement": "pest or weed control at 31 g/ha", "setting": "[13]; 31 g ai/ha, Preemergence", "value": 30, "unit": "%"},
      {"measurement": "pest or weed control at 125 g/ha", "setting": "[13]; [21]", "value": 60, "unit": "%"},
      {"measurement": "pest or weed control at 31 g/ha", "setting": "[14]; 31 g ai/ha, Preemergence", "value": 0, "unit": "%"},
      {"measurement": "pest or weed control at 125 g/ha", "setting": "[14]; [21]", "value": 70, "unit": "%"},
      {"measurement": "pest or weed control at 31 g/ha", "setting": "[15]; 31 g ai/ha, Preemergence", "value": 0, "unit": "%"},
      {"measurement": "pest or weed control at 125 g/ha", "setting": "[15]; [21]", "value": 0, "unit": "%"},
      {"measurement": "pest or weed control at 31 g/ha", "setting": "[16]; 31 g ai/ha, Preemergence", "value": 0, "unit": "%"},
      {"measurement": "pest or weed control at 125 g/ha", "setting": "[16]; [21]", "value": 0, "unit": "%"},
      {"measurement": "pest or weed control at 250 g/ha", "setting": "[17]", "value": 50, "unit": "%"},
      {"measurement": "pest or weed control at 250 g/ha", "setting": "[18]", "value": 0, "unit": "%"},
      {"measurement": "pest or weed control at 250 g/ha", "setting": "[19]", "value": 100, "unit": "%"},
      {"measurement": "pest or weed control at 250 g/ha", "setting": "[20]", "value": 20, "unit": "%"}
    ]}
  ]
}
